Numbers after ± are expanded uncertainties.
Assay: xn = mol fraction of the nth substance listed
Details: 101 kPa, Liquid

CCCCn1cc[n+](C)c1.N#C[S-] [1-butyl-3-methylimidazolium thiocyanate] + CCCO
mass density (298.15 K, x1 = 0.0267): 819.06 ± 1.2 kg/m3
viscosity (298.15 K, x1 = 0.0267): 2.26 ± 0.1 mPa·s
mass density (298.15 K, x1 = 0.0833): 854.16 ± 1.1 kg/m3
viscosity (298.15 K, x1 = 0.0833): 2.87 ± 0.13 mPa·s
mass density (298.15 K, x1 = 0.1849): 903.16 ± 0.88 kg/m3
viscosity (298.15 K, x1 = 0.1849): 4.27 ± 0.19 mPa·s
mass density (298.15 K, x1 = 0.2538): 930.41 ± 0.78 kg/m3
viscosity (298.15 K, x1 = 0.2538): 5.34 ± 0.24 mPa·s
mass density (298.15 K, x1 = 0.3429): 959.02 ± 0.69 kg/m3
viscosity (298.15 K, x1 = 0.3429): 7.42 ± 0.31 mPa·s
mass density (298.15 K, x1 = 0.4577): 988.94 ± 0.64 kg/m3
viscosity (298.15 K, x1 = 0.4577): 10.9 ± 0.4 mPa·s
mass density (298.15 K, x1 = 0.5868): 1015.47 ± 0.77 kg/m3
viscosity (298.15 K, x1 = 0.5868): 16.7 ± 0.6 mPa·s
mass density (298.15 K, x1 = 0.6791): 1030.55 ± 0.94 kg/m3
viscosity (298.15 K, x1 = 0.6791): 20.5 ± 0.8 mPa·s
mass density (298.15 K, x1 = 0.805): 1048.14 ± 1.2 kg/m3
viscosity (298.15 K, x1 = 0.805): 25.8 ± 1 mPa·s
mass density (298.15 K, x1 = 0.9342): 1062.97 ± 1.5 kg/m3
viscosity (298.15 K, x1 = 0.9342): 38.6 ± 1.5 mPa·s
mass density (298.15 K, x1 = 1): 1069.79 ± 1.6 kg/m3
viscosity (298.15 K, x1 = 1): 51.7 ± 1.2 mPa·s
mass density (308.15 K, x1 = 0.0267): 811.18 ± 1.3 kg/m3
viscosity (308.15 K, x1 = 0.0267): 1.8 ± 0.08 mPa·s
mass density (308.15 K, x1 = 0.0833): 846.63 ± 1.1 kg/m3
viscosity (308.15 K, x1 = 0.0833): 2.3 ± 0.11 mPa·s
mass density (308.15 K, x1 = 0.1849): 895.99 ± 0.91 kg/m3
viscosity (308.15 K, x1 = 0.1849): 3.39 ± 0.15 mPa·s
mass density (308.15 K, x1 = 0.2538): 923.49 ± 0.81 kg/m3
viscosity (308.15 K, x1 = 0.2538): 4.21 ± 0.19 mPa·s
mass density (308.15 K, x1 = 0.3429): 952.34 ± 0.72 kg/m3
viscosity (308.15 K, x1 = 0.3429): 5.71 ± 0.25 mPa·s
mass density (308.15 K, x1 = 0.4577): 982.5 ± 0.66 kg/m3
viscosity (308.15 K, x1 = 0.4577): 8.22 ± 0.34 mPa·s
mass density (308.15 K, x1 = 0.5868): 1009.21 ± 0.74 kg/m3
viscosity (308.15 K, x1 = 0.5868): 12.3 ± 0.5 mPa·s
mass density (308.15 K, x1 = 0.6791): 1024.39 ± 0.91 kg/m3
viscosity (308.15 K, x1 = 0.6791): 14.8 ± 0.6 mPa·s
mass density (308.15 K, x1 = 0.805): 1042.09 ± 1.2 kg/m3
viscosity (308.15 K, x1 = 0.805): 18.1 ± 0.7 mPa·s
mass density (308.15 K, x1 = 0.9342): 1057.02 ± 1.4 kg/m3
viscosity (308.15 K, x1 = 0.9342): 26.2 ± 1 mPa·s
mass density (308.15 K, x1 = 1): 1063.89 ± 1.6 kg/m3
viscosity (308.15 K, x1 = 1): 34.9 ± 1.3 mPa·s
mass density (318.15 K, x1 = 0.0267): 803.18 ± 1.3 kg/m3
viscosity (318.15 K, x1 = 0.0267): 1.46 ± 0.07 mPa·s
mass density (318.15 K, x1 = 0.0833): 839 ± 1.1 kg/m3
viscosity (318.15 K, x1 = 0.0833): 1.87 ± 0.09 mPa·s
mass density (318.15 K, x1 = 0.1849): 888.81 ± 0.94 kg/m3
viscosity (318.15 K, x1 = 0.1849): 2.75 ± 0.13 mPa·s
mass density (318.15 K, x1 = 0.2538): 916.58 ± 0.84 kg/m3
viscosity (318.15 K, x1 = 0.2538): 3.4 ± 0.15 mPa·s
mass density (318.15 K, x1 = 0.3429): 945.66 ± 0.75 kg/m3
viscosity (318.15 K, x1 = 0.3429): 4.49 ± 0.2 mPa·s
mass density (318.15 K, x1 = 0.4577): 976.07 ± 0.69 kg/m3
viscosity (318.15 K, x1 = 0.4577): 6.43 ± 0.27 mPa·s
mass density (318.15 K, x1 = 0.5868): 1003.01 ± 0.71 kg/m3
viscosity (318.15 K, x1 = 0.5868): 9.37 ± 0.38 mPa·s
mass density (318.15 K, x1 = 0.6791): 1018.27 ± 0.88 kg/m3
viscosity (318.15 K, x1 = 0.6791): 11.2 ± 0.5 mPa·s
mass density (318.15 K, x1 = 0.805): 1036.08 ± 1.1 kg/m3
viscosity (318.15 K, x1 = 0.805): 13.4 ± 0.5 mPa·s
mass density (318.15 K, x1 = 0.9342): 1051.09 ± 1.4 kg/m3
viscosity (318.15 K, x1 = 0.9342): 18.7 ± 0.7 mPa·s
mass density (318.15 K, x1 = 1): 1058.02 ± 1.6 kg/m3
viscosity (318.15 K, x1 = 1): 24.2 ± 0.9 mPa·s
mass density (328.15 K, x1 = 0.0267): 795 ± 1.3 kg/m3
viscosity (328.15 K, x1 = 0.0267): 1.2 ± 0.06 mPa·s
mass density (328.15 K, x1 = 0.0833): 831.26 ± 1.2 kg/m3
viscosity (328.15 K, x1 = 0.0833): 1.55 ± 0.07 mPa·s
mass density (328.15 K, x1 = 0.1849): 881.57 ± 0.98 kg/m3
viscosity (328.15 K, x1 = 0.1849): 2.27 ± 0.11 mPa·s
mass density (328.15 K, x1 = 0.2538): 909.63 ± 0.87 kg/m3
viscosity (328.15 K, x1 = 0.2538): 2.8 ± 0.1 mPa·s
mass density (328.15 K, x1 = 0.3429): 939 ± 0.78 kg/m3
viscosity (328.15 K, x1 = 0.3429): 3.6 ± 0.2 mPa·s
mass density (328.15 K, x1 = 0.4577): 969.67 ± 0.72 kg/m3
viscosity (328.15 K, x1 = 0.4577): 5.1 ± 0.2 mPa·s
mass density (328.15 K, x1 = 0.5868): 996.84 ± 0.7 kg/m3
viscosity (328.15 K, x1 = 0.5868): 7.3 ± 0.3 mPa·s
mass density (328.15 K, x1 = 0.6791): 1012.18 ± 0.84 kg/m3
viscosity (328.15 K, x1 = 0.6791): 8.7 ± 0.4 mPa·s
mass density (328.15 K, x1 = 0.805): 1030.11 ± 1.1 kg/m3
viscosity (328.15 K, x1 = 0.805): 10.4 ± 0.4 mPa·s
mass density (328.15 K, x1 = 0.9342): 1045.22 ± 1.4 kg/m3
viscosity (328.15 K, x1 = 0.9342): 14 ± 0.6 mPa·s
mass density (328.15 K, x1 = 1): 1052.19 ± 1.5 kg/m3
viscosity (328.15 K, x1 = 1): 16.7 ± 0.7 mPa·s
mass density (338.15 K, x1 = 0.0267): 786.6 ± 1.4 kg/m3
viscosity (338.15 K, x1 = 0.0267): 1 ± 0.05 mPa·s
mass density (338.15 K, x1 = 0.0833): 823.39 ± 1.2 kg/m3
viscosity (338.15 K, x1 = 0.0833): 1.3 ± 0.06 mPa·s
mass density (338.15 K, x1 = 0.1849): 874.27 ± 1 kg/m3
viscosity (338.15 K, x1 = 0.1849): 1.9 ± 0.09 mPa·s
mass density (338.15 K, x1 = 0.2538): 902.7 ± 0.9 kg/m3
viscosity (338.15 K, x1 = 0.2538): 2.35 ± 0.11 mPa·s
mass density (338.15 K, x1 = 0.3429): 932.34 ± 0.81 kg/m3
viscosity (338.15 K, x1 = 0.3429): 3.01 ± 0.14 mPa·s
mass density (338.15 K, x1 = 0.4577): 963.3 ± 0.75 kg/m3
viscosity (338.15 K, x1 = 0.4577): 4.18 ± 0.19 mPa·s
mass density (338.15 K, x1 = 0.5868): 990.7 ± 0.73 kg/m3
viscosity (338.15 K, x1 = 0.5868): 5.89 ± 0.26 mPa·s
mass density (338.15 K, x1 = 0.6791): 1006.14 ± 0.81 kg/m3
viscosity (338.15 K, x1 = 0.6791): 6.97 ± 0.3 mPa·s
mass density (338.15 K, x1 = 0.805): 1024.2 ± 1.1 kg/m3
viscosity (338.15 K, x1 = 0.805): 8.19 ± 0.34 mPa·s
mass density (338.15 K, x1 = 0.9342): 1039.4 ± 1.3 kg/m3
viscosity (338.15 K, x1 = 0.9342): 10.9 ± 0.4 mPa·s
mass density (338.15 K, x1 = 1): 1046.43 ± 1.5 kg/m3
viscosity (338.15 K, x1 = 1): 12.7 ± 0.5 mPa·s
mass density (348.15 K, x1 = 0.0267): 777.98 ± 1.4 kg/m3
viscosity (348.15 K, x1 = 0.0267): 0.848 ± 0.043 mPa·s
mass density (348.15 K, x1 = 0.0833): 815.39 ± 1.3 kg/m3
viscosity (348.15 K, x1 = 0.0833): 1.1 ± 0.05 mPa·s
mass density (348.15 K, x1 = 0.1849): 866.94 ± 1 kg/m3
viscosity (348.15 K, x1 = 0.1849): 1.62 ± 0.08 mPa·s
mass density (348.15 K, x1 = 0.2538): 895.73 ± 0.94 kg/m3
viscosity (348.15 K, x1 = 0.2538): 2 ± 0.09 mPa·s
mass density (348.15 K, x1 = 0.3429): 925.71 ± 0.84 kg/m3
viscosity (348.15 K, x1 = 0.3429): 2.56 ± 0.12 mPa·s
mass density (348.15 K, x1 = 0.4577): 956.97 ± 0.77 kg/m3
viscosity (348.15 K, x1 = 0.4577): 3.46 ± 0.16 mPa·s
mass density (348.15 K, x1 = 0.5868): 984.6 ± 0.75 kg/m3
viscosity (348.15 K, x1 = 0.5868): 4.81 ± 0.22 mPa·s
mass density (348.15 K, x1 = 0.6791): 1000.13 ± 0.78 kg/m3
viscosity (348.15 K, x1 = 0.6791): 5.64 ± 0.25 mPa·s
mass density (348.15 K, x1 = 0.805): 1018.32 ± 1 kg/m3
viscosity (348.15 K, x1 = 0.805): 6.62 ± 0.28 mPa·s
mass density (348.15 K, x1 = 0.9342): 1033.61 ± 1.3 kg/m3
viscosity (348.15 K, x1 = 0.9342): 8.69 ± 0.36 mPa·s
mass density (348.15 K, x1 = 1): 1040.7 ± 1.4 kg/m3
viscosity (348.15 K, x1 = 1): 9.98 ± 0.41 mPa·s

— the NIST ThermoML archive (doi:10.1021/je8008254)
